According to patent US12421242B2, “Substituted tetrahydropyrrolo-pyridinone compounds and their use in treating medical conditions” (Karuna Therapeutics, Inc., priority 2022, dated 2025):

Tests used:
hM4 receptors = target: T1, hM4 receptors (Homo sapiens, UniProt P08173); assay: Human M4 PAM pERK assay; type: cell-based; details: PAM mode
T1 construct: expressed in transfected cells; host or cells: CHO cells
T1 sequence (P08173 1-479): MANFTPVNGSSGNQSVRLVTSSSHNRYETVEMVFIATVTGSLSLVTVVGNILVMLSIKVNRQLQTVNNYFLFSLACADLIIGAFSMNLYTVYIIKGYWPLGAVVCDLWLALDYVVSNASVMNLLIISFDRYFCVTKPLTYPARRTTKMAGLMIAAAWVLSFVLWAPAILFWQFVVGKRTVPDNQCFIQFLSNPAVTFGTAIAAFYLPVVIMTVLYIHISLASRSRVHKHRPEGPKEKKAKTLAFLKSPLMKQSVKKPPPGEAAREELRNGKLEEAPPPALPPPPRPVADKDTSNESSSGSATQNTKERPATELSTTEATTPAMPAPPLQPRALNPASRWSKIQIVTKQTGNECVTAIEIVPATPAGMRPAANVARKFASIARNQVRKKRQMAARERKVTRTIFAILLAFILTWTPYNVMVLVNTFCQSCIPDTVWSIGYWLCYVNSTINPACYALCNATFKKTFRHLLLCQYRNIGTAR
Summary of the method: (§1)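 CHO cells expressing hM4 or rM4 were serum-starved 4 h, then given compound (ten-point curve, 10 μM top, duplicate) with an EC20 of acetylcholine (10 nM final) for 5 min at 37° C. Phospho-ERK in lysates was detected by TR-FRET.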

rM4 receptors = target: T2, rM4 receptors (Rattus norvegicus, UniProt P08485); assay: Rat M4 PAM pERK assay; type: cell-based; details: PAM mode
T2 construct: expressed in transfected cells; host or cells: CHO cells
T2 sequence (P08485 1-478): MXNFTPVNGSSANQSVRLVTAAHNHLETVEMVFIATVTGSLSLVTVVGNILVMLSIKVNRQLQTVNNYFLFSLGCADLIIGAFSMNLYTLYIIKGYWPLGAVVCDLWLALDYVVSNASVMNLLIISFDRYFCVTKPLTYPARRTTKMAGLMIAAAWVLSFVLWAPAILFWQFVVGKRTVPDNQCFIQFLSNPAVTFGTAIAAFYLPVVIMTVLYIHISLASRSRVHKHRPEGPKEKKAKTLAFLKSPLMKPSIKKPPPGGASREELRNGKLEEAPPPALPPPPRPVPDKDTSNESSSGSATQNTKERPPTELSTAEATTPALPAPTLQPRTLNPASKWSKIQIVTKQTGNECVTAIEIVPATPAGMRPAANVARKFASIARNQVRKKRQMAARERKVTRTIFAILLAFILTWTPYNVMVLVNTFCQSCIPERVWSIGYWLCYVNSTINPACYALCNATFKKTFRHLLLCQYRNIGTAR
Summary of the method: as §1

human M4 receptor = target: T3, human M4 receptor (Homo sapiens, UniProt P08173); assay: M4 GTPγS PAM assay; type: biochemical; details: CHO-K1 membranes expressing human M4, with EC20 acetylcholine (40 nM)
T3 construct: expressed in transfected cells
T3 sequence (P08173 1-479): T1 sequence (P08173 1-479)
Summary of the method: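 Membranes from CHO-K1 cells stably expressing human M4 preincubated 10-15 min with compound in HEPES/MgCl2/NaCl buffer with 0.1 µM GDP, then with EC20 acetylcholine (40 nM) for 10-15 min. [35S]GTPγS added for 1 h at room temperature; filter-bound radioactivity counted by scintillation.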

EC50 (hM4 receptors) [nM] | EC50 (rM4 receptors) [nM] | EC50 (human M4 receptor) [nM] | SMILES
< 100 | 500 to 2000 | 100 to 500 | Cc1c2c(n(C)c(=O)c1Cl)CN(C(=O)c1cnn(C(F)(F)F)c1)C2 [Compound I-1, 3-chloro-1,4-dimethyl-6-(1-(Trifluoromethyl)-1H-pyrazole-4-carbonyl)-1,5,6,7-tetrahydro-2H-pyrrolo[3,4-b]pyridin-2-one]
< 100 | 100 to 500 | < 100 | Cc1c2c(n(C)c(=O)c1Cl)CN(C(=O)c1cnn(C(F)(F)F)c1)[C@@H]2C [Compound I-76, (R)-3-Chloro-1,4,5-trimethyl-6-(1-(trifluoromethyl)-1H-pyrazole-4-carbonyl)-1,5,6,7-tetrahydro-2H-pyrrolo[3,4-b]pyridin-2-one]
< 100 | > 2000 | 100 to 500 | COc1c2c(n(C)c(=O)c1C)CN(C(=O)c1cnn(C(F)(F)F)c1)C2 [Compound I-87]
